# Reference: patent US20040265846A1, “Adrenergic receptors” (DUKE UNIVERSITY, priority 2002, published 2004)
# Residue numbers refer to the chain shown, from its start. Read-outs that look alike come from different tables or passages of the source.
# Assays:
# [1] = test system: α1aAR F308 / F312 substituted receptors; conditions: cited from earlier work
# human α1aAR SNPs [2] = assay: NE-stimulated IP production, transiently expressed polymorphic receptors; format: cell-based; conditions: any polymorphic receptor, transient expression 1.30-1.98 pmol/mg protein
# Method: Effect of human α1aAR SNPs on IP signaling in transiently transfected rat-1 fibroblasts (receptor densities 1.30-1.98 pmol/mg protein). […] For each construct, IP assay, binding assay and cell number were measured in paralleled plates. […] Basal IP release.
# Transient transfection was also used to express receptors for binding and IP experiments in order to verify consistent behavior using alternative methods of protein expression.
# Measurement of Intracellular Inositol Phosphate (IP) Production. Rat-1 cells expressing either the WT or mutated α1aAR grown on 12-well plates were labeled with [^3H]inositol for 20-24 h with 2.5 μCi/ml in complete DMEM. Measurement of intracellular IP production was performed under serum-free conditions. […] For all experiments, membranes were collected for receptor quantititation and cells were counted at the time of assay.
# human α1aAR SNPs [3] = assay: NE-induced desensitization of IP response, receptors with any SNP; format: cell-based; conditions: high or low expression level
# Method: (§3) The extent of desensitization was expressed as percent of reduction of IP response in pretreated cells compared with the response in naive cells. n=3-6. […] High-expression clones. […] Low-expression clones. Measurement of Intracellular Inositol Phosphate (IP) Production. […] Measurement of intracellular IP production was performed under serum-free conditions. […] For all experiments, membranes were collected for receptor quantititation and cells were counted at the time of assay.
# human α1aAR WT [4] = target: T1, human α1aAR WT (Homo sapiens, UniProt P35348); assay: NE-induced desensitization of IP response, WT; format: cell-based; conditions: 10 min 10 μM NE pretreatment, compared with unpretreated
# T1 construct: expressed in transfected cells
# T1 sequence (P35348 1-466): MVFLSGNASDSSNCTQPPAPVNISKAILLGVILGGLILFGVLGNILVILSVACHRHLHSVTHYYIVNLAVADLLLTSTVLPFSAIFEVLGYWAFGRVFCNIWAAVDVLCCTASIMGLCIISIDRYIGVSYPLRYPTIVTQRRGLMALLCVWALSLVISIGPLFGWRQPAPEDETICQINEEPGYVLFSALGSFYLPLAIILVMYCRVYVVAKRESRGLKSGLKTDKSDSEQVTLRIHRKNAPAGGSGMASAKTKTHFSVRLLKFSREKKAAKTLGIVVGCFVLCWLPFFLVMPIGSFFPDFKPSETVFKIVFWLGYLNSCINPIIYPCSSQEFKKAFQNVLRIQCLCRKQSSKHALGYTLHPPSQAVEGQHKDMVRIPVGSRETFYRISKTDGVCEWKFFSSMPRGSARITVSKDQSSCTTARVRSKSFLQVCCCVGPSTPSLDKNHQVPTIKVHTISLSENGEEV
# Method: as §3
# human α1aAR WT [5] = target: T1, human α1aAR WT; assay: [125I]HEAT saturation binding on membranes, WT high expressing clone; conditions: membranes from WT α1aAR high expressing clone, rat-1 fibroblasts, 1.77±0.24 pmol/mg protein
# Method: (§1) Cell Culture and Transfection. Rat-1 fibroblasts were cultured in DMEM supplemented with 10% FBS at 37° C. Cells were transfected with either the WT (reference sequence with all major alleles, GenBank accession number L31774) or mutated α1aAR in pcDNA3 by calcium phosphate precipitation. For stable transfection, clones resistant to G418 (0.8 mg/ml) were isolated and tested for receptor expression. Two different expression levels were chosen for receptor functional investigation. Low receptor expression level was defined a priori as <0.5 pmol/mg total protein, while high-level expression was defined as >1.5 pmol/mg protein.
# (§2) Membrane Preparation and Radioligand Binding. Rat-1 membrane preparation and ligand binding assay using the α1AR selective antagonist, [^125I]HEAT, were performed as previously described (Schwinn et al, J. Pharmacol. Exp. Ther. 272:134-142 (1995)).
# Pharmacological Characterization. In order to examine whether these polymorphic α1aARs have altered ligand binding characteristics, saturation binding isotherms were first performed to determine the dissociation constant (Kd) for the antagonist [^125I]HEAT, followed by competition assays designed to determine binding affinities for a series of α1aAR agonists and antagonists.
# human α1aAR SNPs [6] = assay: [125I]HEAT saturation binding on membranes, receptors containing each SNP; conditions: expression 1.53-2.37 pmol/mg
# Method: In Vitro Site-Directed Mutagenesis in the aoclar. Site-directed mutagenesis was utilized to introduce mutations corresponding to each SNP in hemagglutinin-tagged human α1aAR previously placed in the expression vector pcDNA3 (Price et al, J. Biol. Chem. 277:9570-9579 (2002)). Mutagenesis was performed using the QuickChange™ Site-Directed Mutagenesis Kit (Stratagene) as recommended by the manufacture. All mutations were confirmed by DNA sequencing (Duke University DNA Analysis Facility).
# as §1, §2
# Pharmacological Characterization. […]
# [7] = test system: α1aAR F163 (TM4) / F187 (TM5) mutants; conditions: Waugh et al 2000; cited from earlier work
# human α1aAR SNP V311I = target: T2, human α1aAR SNP V311I (Homo sapiens, UniProt P35348, V311I); assay: Competition binding vs [125I]HEAT, SNP V311I; conditions: high expressing clone
# T2 construct: expressed in transfected cells
# T2 sequence (P35348 1-466 V311I): T1 sequence (P35348 1-466) with V311I
# human α1aAR SNPs [8] = conditions: receptors containing any SNP, high expressing clones
smiles,measurement,setting,value
COc1ccccc1N1CCN(CCCNc2c(C)c(=O)n(C)c(=O)n2C)CC1 [5-methylurapidil],affinity on substitution of F308 and F312,[1]; Waugh et al 2001,decreased affinity
COc1ccccc1N1CCN(CCN2C(=O)CC3(CCCC3)CC2=O)CC1 [BMY7378],affinity on substitution of F308 and F312,[1]; Waugh et al 2001,decreased affinity
"NC[C@H](O)c1ccc(O)c(O)c1 [NE, (−)-norepinephrine]",maximum IP response vs WT,human α1aAR SNPs [2],no significant change
same,"agonist-induced desensitization, SNP receptors vs WT",human α1aAR SNPs [3],no difference in agonist-induced desensitization
same,lower IP production after NE pretreatment (desensitization),human α1aAR WT [4]; high-expression level,33.5±3.2%
same,lower IP production after NE pretreatment (desensitization),human α1aAR WT [4]; low-expression level,31.0±3.1%
COc1cccc(OC)c1OCCNCC1COc2ccccc2O1 (stereo not drawn) [WB4101],affinity on substitution of F308 and F312,[1]; Waugh et al 2001,decreased affinity
"O=C1c2ccccc2CCC1CNCCc1ccc(O)c(I)c1 (stereo not drawn) [[^125I]HEAT, ^125I-(2-β-(4-hydroxyphenyl)-ethylamineomethyl)-tetralone]",Kd,human α1aAR WT [5],0.0421 ± 0.0065 nM
"O=C1c2ccccc2CCC1CNCCc1ccc(O)c([125I])c1 (stereo not drawn) [[^125I]HEAT, ^125I-(2-β-(4-hydroxyphenyl)-ethylamineomethyl)-tetralone]",affinity on substitution of F308 and F312,[1]; Waugh et al 2001,not
same,Kd values for [125I]HEAT compared with WT,human α1aAR SNPs [6],not significantly different from WT
"CNC[C@H](O)c1ccc(O)c(O)c1 [epinephrine, (−)-epinephrine]",decrease in affinity on mutation of F163 or F187,[7],10 fold
same,Ki increase vs WT (decrease in receptor affinity),human α1aAR SNP V311I,~3 fold
Cc1cc(C(C)(C)C)c(O)c(C)c1CC1=NCCN1 [oxymetazoline],change in affinity vs WT,human α1aAR SNPs [8],no change in the affinity
Cc1ccc(N(CC2=NCCN2)c2cccc(O)c2)cc1 [phentolamine],affinity on substitution of F308 and F312,[1]; Waugh et al 2001,not
COc1cc2nc(N3CCN(C(=O)c4ccco4)CC3)nc(N)c2cc1OC [prazosin],affinity on substitution of F308 and F312,[1],decreased affinity
